Results published in ChEMBL document CHEMBL1201862, “PubChem BioAssay data set” (2004).
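Values below derive from 48-hour exposures of cells grown in 96-well plates, with endpoints linearly interpolated between the two concentrations bracketing the appropriate inhibition level. Abbreviation: GI50, concentration required for 50% inhibition of growth.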 The source made the active and inactive calls. Cut-off read from the data, not from the text of the source: active = GI50 up to about 1.1 µM and inactive = higher.

Legend:
Assay in all cases: NCI-60 cell line screen, 48 h
HCC 2998 = tested on: HCC 2998
BT-549 = tested on: BT-549
KM12 = tested on: KM12
OVCAR-3 = tested on: OVCAR-3
T47D = tested on: T47D
UACC-257 = tested on: UACC-257
LOX IMVI = tested on: LOX IMVI
OVCAR-8 = tested on: OVCAR-8
786-0 = tested on: 786-0
EKVX = tested on: EKVX
SN12C = tested on: SN12C
A549 = tested on: A549
NCI-H226 = tested on: NCI-H226
SK-MEL-2 = tested on: SK-MEL-2
SK-MEL-28 = tested on: SK-MEL-28
IGROV-1 = tested on: IGROV-1
CAKI-1 = tested on: CAKI-1
RPMI-8226 = tested on: RPMI-8226
MDA-N = tested on: MDA-N

CCOC(=O)N/N=C(/OCC)c1ccccc1
GI50 (HCC 2998): > 100 µM (inactive)
GI50 (BT-549): > 100 µM (inactive)
GI50 (KM12): > 100 µM (inactive)
GI50 (OVCAR-3): > 100 µM (inactive)
GI50 (T47D): > 100 µM (inactive)
GI50 (UACC-257): > 100 µM (inactive)
GI50 (LOX IMVI): > 100 µM (inactive)
GI50 (OVCAR-8): > 100 µM (inactive)
GI50 (786-0): > 100 µM (inactive)
GI50 (EKVX): > 100 µM (inactive)
GI50 (SN12C): > 100 µM (inactive)
GI50 (A549): > 100 µM (inactive)
GI50 (NCI-H226): > 100 µM (inactive)
GI50 (SK-MEL-2): > 100 µM (inactive)
GI50 (SK-MEL-28): > 100 µM (inactive)
GI50 (IGROV-1): > 100 µM (inactive)
GI50 (CAKI-1): > 100 µM (inactive)
GI50 (RPMI-8226): > 100 µM (inactive)
GI50 (MDA-N): > 100 µM (inactive)

OCC(O)COCn1cc(Cn2ncc3c(O)ncnc32)nn1 (centres undefined)
GI50 (HCC 2998): > 100 µM (inactive)
GI50 (BT-549): > 100 µM (inactive)
GI50 (KM12): > 100 µM (inactive)
GI50 (OVCAR-3): > 100 µM (inactive)
GI50 (T47D): > 100 µM (inactive)
GI50 (UACC-257): > 100 µM (inactive)
GI50 (LOX IMVI): > 100 µM (inactive)
GI50 (OVCAR-8): > 100 µM (inactive)
GI50 (786-0): > 100 µM (inactive)
GI50 (EKVX): > 100 µM (inactive)
GI50 (SN12C): > 100 µM (inactive)
GI50 (A549): > 100 µM (inactive)
GI50 (NCI-H226): > 100 µM (inactive)
GI50 (SK-MEL-2): > 100 µM (inactive)
GI50 (SK-MEL-28): > 100 µM (inactive)
GI50 (IGROV-1): > 100 µM (inactive)
GI50 (CAKI-1): > 100 µM (inactive)
GI50 (RPMI-8226): > 100 µM (inactive)
GI50 (MDA-N): > 100 µM (inactive)

Fc1cccc(F)c1C1SCc2nc3cc4ccccc4cc3n21 (centres undefined)
GI50 (HCC 2998): 23.9 µM (inactive)
GI50 (BT-549): 8.71 µM (inactive)
GI50 (KM12): 34 µM (inactive)
GI50 (OVCAR-3): 15.7 µM (inactive)
GI50 (T47D): 23 µM (inactive)
GI50 (UACC-257): 31.6 µM (inactive)
GI50 (LOX IMVI): 32.9 µM (inactive)
GI50 (OVCAR-8): 58.6 µM (inactive)
GI50 (786-0): 31.2 µM (inactive)
GI50 (EKVX): 54.6 µM (inactive)
GI50 (SN12C): 34.1 µM (inactive)
GI50 (A549): 33.3 µM (inactive)
GI50 (NCI-H226): 23.3 µM (inactive)
GI50 (SK-MEL-2): > 100 µM (inactive)
GI50 (SK-MEL-28): 49.7 µM (inactive)
GI50 (IGROV-1): 21.7 µM (inactive)
GI50 (CAKI-1): 88.1 µM (inactive)
GI50 (RPMI-8226): 6.92 µM (inactive)
GI50 (MDA-N): 39 µM (inactive)

CC(C)CCNC(=O)c1ccc(CNC(=O)/C=C/c2cccc(Oc3ccccc3)c2)cc1
GI50 (HCC 2998): 26.9 µM (inactive)
GI50 (BT-549): 60.1 µM (inactive)
GI50 (KM12): 44 µM (inactive)
GI50 (OVCAR-3): 28.4 µM (inactive)
GI50 (T47D): 79.3 µM (inactive)
GI50 (UACC-257): 23.2 µM (inactive)
GI50 (LOX IMVI): 37.2 µM (inactive)
GI50 (OVCAR-8): 25.9 µM (inactive)
GI50 (786-0): 24 µM (inactive)
GI50 (EKVX): 23.1 µM (inactive)
GI50 (SN12C): 43.7 µM (inactive)
GI50 (A549): 42.6 µM (inactive)
GI50 (NCI-H226): 47.4 µM (inactive)
GI50 (SK-MEL-2): 31.3 µM (inactive)
GI50 (SK-MEL-28): > 100 µM (inactive)
GI50 (IGROV-1): 67.5 µM (inactive)
GI50 (CAKI-1): 47.1 µM (inactive)
GI50 (RPMI-8226): 67.9 µM (inactive)
GI50 (MDA-N): 16.5 µM (inactive)

CC(CN(C)C)C(=O)/C=C/c1ccc(Cl)c(Cl)c1 (centres undefined)
GI50 (HCC 2998): 1.94 µM (inactive)
GI50 (BT-549): 2.14 µM (inactive)
GI50 (KM12): 1.31 µM (inactive)
GI50 (OVCAR-3): 1.78 µM (inactive)
GI50 (T47D): 24.7 µM (inactive)
GI50 (UACC-257): 2.38 µM (inactive)
GI50 (LOX IMVI): 1.56 µM (inactive)
GI50 (OVCAR-8): 1.52 µM (inactive)
GI50 (786-0): 0.766 µM (active)
GI50 (EKVX): 1.7 µM (inactive)
GI50 (SN12C): 1.58 µM (inactive)
GI50 (A549): 3.33 µM (inactive)
GI50 (NCI-H226): 2.2 µM (inactive)
GI50 (SK-MEL-2): 2 µM (inactive)
GI50 (SK-MEL-28): 3.37 µM (inactive)
GI50 (IGROV-1): 1.78 µM (inactive)
GI50 (CAKI-1): 2 µM (inactive)
GI50 (RPMI-8226): 0.338 µM (active)
GI50 (MDA-N): 2.07 µM (inactive)

NS(=O)(=O)c1ccc(/N=N/c2nc3[nH]cnc(=S)c3[nH]2)cc1
GI50 (HCC 2998): 0.682 µM (active)
GI50 (BT-549): 1.3 µM (inactive)
GI50 (KM12): 4.1 µM (inactive)
GI50 (OVCAR-3): 1.22 µM (inactive)
GI50 (T47D): 1.16 µM (inactive)
GI50 (UACC-257): 2.94 µM (inactive)
GI50 (LOX IMVI): 0.236 µM (active)
GI50 (OVCAR-8): 0.593 µM (active)
GI50 (786-0): 0.507 µM (active)
GI50 (EKVX): 2.21 µM (inactive)
GI50 (SN12C): 1.87 µM (inactive)
GI50 (A549): 4.93 µM (inactive)
GI50 (NCI-H226): 4.65 µM (inactive)
GI50 (SK-MEL-2): 0.971 µM (active)
GI50 (SK-MEL-28): 10.6 µM (inactive)
GI50 (IGROV-1): 7.29 µM (inactive)
GI50 (CAKI-1): 1.42 µM (inactive)
GI50 (RPMI-8226): 0.31 µM (active)
GI50 (MDA-N): 0.684 µM (active)
